Reference: the supplement of paper PMC10307832

Tests used:
Experiment in all cases: relative viability (nuclei count vs DMSO), 5 days (fraction); higher = more cells survive
[1] = compound: C#Cc1cccc(Nc2ncnc3cc(OCCOC)c(OCCOC)cc23)c1 [Erlotinib] + O=C(c1cc(Cc2n[nH]c(=O)c3ccccc23)ccc1F)N1CCN(C(=O)C2CC2)CC1 [Olaparib] (partner 8 µM)
Summary of the method: (§1)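 One day after seeding in 1536-well plates, lung cancer cell lines were dosed by pin tool. Dosing was either single-drug or a fixed anchor-drug dose plus five library-drug doses (not always all listed) in √10 steps. After 5 days, nuclei were stained in one fix-and-stain step and counted on 4× images, and relative viability is the nuclei count of treated wells over that of vehicle wells, given as the median of duplicate plates.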

[2] = compound: C#Cc1cccc(Nc2ncnc3cc(OCCOC)c(OCCOC)cc23)c1 [Erlotinib] + Cc1nc(Nc2ncc(C(=O)Nc3c(C)cccc3Cl)s2)cc(N2CCN(CCO)CC2)n1 [Dasatinib] (partner 0.075 µM)
Summary of the method: as §1

[3] = compound: O=C(Nc1c[nH]nc1-c1nc2ccc(CN3CCOCC3)cc2[nH]1)NC1CC1 [AT9283] + COc1cccc2cc(-c3nc([C@H]4CC[C@H](C(=O)O)CC4)n4ncnc(N)c34)[nH]c12 [OSI-027] (partner 0.5 µM)
Summary of the method: as §1

[4] = compound: C#Cc1cccc(Nc2ncnc3cc(OCCOC)c(OCCOC)cc23)c1 [Erlotinib] + CC(=O)Nc1cccc(-n2c(=O)n(C3CC3)c(=O)c3c(Nc4ccc(I)cc4F)n(C)c(=O)c(C)c32)c1 [Trametinib] (partner 0.02 µM)
Summary of the method: as §1

[5] = compound: C#Cc1cccc(Nc2ncnc3cc(OCCOC)c(OCCOC)cc23)c1 [Erlotinib] + CC(C)C[C@H](NC(=O)[C@H](Cc1ccccc1)NC(=O)c1cnccn1)B(O)O [Bortezomib] (partner 0.002 µM)
Summary of the method: as §1

Row | Cell Line | relative viability ([1]; first compound 0.02 µM) | relative viability ([1]; first compound 0.2 µM) | relative viability ([1]; first compound 2 µM) | relative viability ([2]; first compound 0.2 µM) | relative viability ([2]; first compound 0.6325 µM) | relative viability ([2]; first compound 2 µM) | relative viability ([3]; first compound 0.003 µM) | relative viability ([3]; first compound 0.03 µM) | relative viability ([3]; first compound 0.09487 µM) | relative viability ([3]; first compound 0.3 µM) | relative viability ([4]; first compound 0.02 µM) | relative viability ([4]; first compound 0.2 µM) | relative viability ([4]; first compound 0.6325 µM) | relative viability ([4]; first compound 2 µM) | relative viability ([5]; first compound 0.02 µM) | relative viability ([5]; first compound 0.2 µM) | relative viability ([5]; first compound 0.6325 µM) | relative viability ([5]; first compound 2 µM) | relative viability ([1]; first compound 0.6325 µM) | relative viability ([2]; first compound 0.02 µM)
1 | LCLC-103H | 0.745 | 0.75 | 0.707 | 0.6 | 0.478 | 0.399 | 0.396 | 0.451 | 0.415 | 0.276 | 0.727 | 0.636 | 0.661 | 0.62 | 1.16 | 1.2 | 1.1 | 0.992 |  | 
2 | NCI-H1666 | 0.787 | 0.793 | 0.645 | 0.759 | 0.828 | 0.64 | 0.782 | 0.811 | 0.636 | 0.483 | 0.904 | 0.736 | 0.78 | 0.709 | 0.864 | 0.74 | 0.766 | 0.615 | 0.676 | 
3 | LC-2-ad | 0.709 | 0.785 | 0.625 | 0.466 | 0.589 | 0.452 | 0.766 | 0.476 | 0.249 | 0.229 | 0.902 | 0.907 | 0.87 | 0.775 | 1.02 | 1.02 |  | 0.868 | 0.692 | 0.724
4 | PC-14 | 0.272 | 0.168 | 0.106 | 0.0332 | 0.0591 | 0.0181 | 0.878 | 0.745 | 0.0842 | 0.08 | 0.185 | 0.0801 | 0.107 | 0.0898 | 0.67 | 0.259 | 0.21 | 0.249 | 0.135 | 0.0626
5 | 201T | 0.846 | 0.85 | 0.774 | 0.548 | 0.543 | 0.541 | 0.663 | 0.776 | 0.188 | 0.206 | 0.709 | 0.675 | 0.694 | 0.636 | 1.12 | 1.06 | 1.12 | 1.02 | 0.788 | 0.646
6 | NCI-H1651 | 0.171 | 0.188 | 0.145 | 0.39 | 0.469 | 0.387 | 0.753 | 0.714 | 0.568 | 0.334 | 0.881 | 0.814 | 0.877 | 0.84 | 0.912 | 0.909 | 0.918 | 0.882 | 0.173 | 0.37
7 | RERF-LC-KJ | 1 | 0.86 | 0.852 | 0.658 | 0.662 | 0.583 | 0.609 | 0.544 | 0.308 | 0.279 | 0.913 | 0.774 | 0.799 | 0.613 | 1.04 | 1.01 | 0.854 | 0.762 | 0.994 | 0.89
8 | COR-L 105 | 0.638 | 0.603 | 0.294 | 0.173 | 0.182 | 0.122 | 0.606 | 0.292 | 0.284 | 0.231 | 0.455 | 0.336 | 0.415 | 0.362 | 0.828 | 0.342 | 0.407 | 0.335 | 0.47 | 0.302
9 | NCI-H1915 | 0.25 | 0.264 | 0.222 | 0.376 | 0.327 | 0.273 | 0.619 | 0.619 | 0.239 | 0.196 | 0.304 | 0.308 | 0.329 | 0.285 | 0.982 | 0.989 | 1.05 | 0.992 | 0.25 | 0.338
10 | CAL-12T | 0.742 | 0.674 | 0.474 | 0.307 | 0.266 | 0.15 | 0.718 | 0.599 | 0.216 | 0.17 | 0.334 | 0.279 | 0.31 | 0.173 | 0.879 | 0.73 | 0.713 | 0.487 | 0.488 | 0.632
11 | NCI-H1975 | 0.818 | 0.712 | 0.695 | 0.407 | 0.372 | 0.205 | 0.726 | 0.706 | 0.671 | 0.344 | 0.368 | 0.32 | 0.404 | 0.348 | 0.381 | 0.355 | 0.451 | 0.303 | 0.888 | 0.391
12 | PC-3 [JPC-3] | 1.05 | 0.559 | 0.434 | 0.627 | 0.352 | 0.29 | 0.741 | 0.791 | 0.591 | 0.517 | 0.557 | 0.427 | 0.337 | 0.332 | 0.796 | 0.455 | 0.401 | 0.324 | 0.466 | 0.937
13 | NCI-H2228 | 0.678 | 0.701 | 0.604 | 0.492 | 0.5 | 0.368 | 0.585 | 0.648 | 0.355 | 0.126 | 0.436 | 0.708 | 0.49 | 0.381 | 1.06 | 1.03 | 1.02 | 0.8 | 0.537 | 0.625
14 | HARA | 1.1 | 0.591 | 0.354 | 0.265 | 0.253 | 0.151 | 0.612 | 0.327 | 0.073 | 0.0736 | 0.709 | 0.39 | 0.406 | 0.291 | 1.2 | 1.01 | 0.959 | 0.867 | 1.02 | 0.28
